Test results: patent US8354400B2, “Benzoxazole compounds and methods of use” (Eisai R&D Co., Ltd., priority 2008, dated 2013)

Experiments:
[1] = test system: collagen induced arthritis in male DBA/1J mice; test: Type II collagen induced arthritis model; type: in vivo; settings: 5 days per week from day 9
Procedure: The type II collagen induced arthritis model was used for the purpose of in vivo evaluation of Compound 2 for the treatment of arthritis. In this model, arthritis was induced in male DBA/1J (Jackson Labs) mice using complete Freund's adjuvant. A first priming/immunization dose of 300 μg of bovine type II collagen emulsified in an equal volume of complete Freund's adjuvant is injected subcutaneously (s.c.) at least 5 mm from the base of the tail.
Starting on day 9 after immunization and each day for 5 days per week thereafter, each mouse was dosed orally with 6 mg/kg, 20 mg/kg, or 60 mg/kg of Compound 2 or placebo 5 days per week.
A second immunization dose was administered 21 days after the first immunization by s.c. injection above the first immunization site of 200 μg of bovine type II collagen emulsified in an equal volume of incomplete Freund's adjuvant. To further promote arthritis progression, animals receive an intraperitoneal injection of lipopolysaccharide (LPS) (1 μg/mouse in PBS) three days after the second immunization.
At 21, 25, 28, and 31 days after the first immunization dose, the animals were examined for evidence of paw swelling and assigned an arthritis score at each time point.

[2] = test system: MOGp35-55-induced EAE in C57BL/6J mice; test: Experimental autoimmune encephalitis (EAE) multiple sclerosis model; type: in vivo
Procedure: Experimental autoimmune encephalitis (EAE) is an induced autoimmunity in mice that mimics human multiple sclerosis, including autoantibody and cellular responses targeted against central nervous system antigens. To induce EAE, groups of 8 male C57BL/6J mice (Jackson Laboratories) were immunized subcutaneously on day 0 with the synthetic peptide MOGp35-55 (Becher et al. J. Clin. Invest. 112:1186-1191 (2003)), with amino acid sequence […] (SEQ ID NO:4) at a dose of 200 μg/mouse in complete Freund's adjuvant (CFA). At the same time the animals received pertussis toxin, i.p. at 30 ng/mouse. On day 2 the pertussis injection was repeated. On day 7 the mice were boosted with MOGp35-55, 200 μg/mouse in incomplete Freund's. Beginning on day 9 the mice were dosed daily by oral gavage with Compound 23 in water at 20 mg/kg or 60 mg/kg. Symptoms were scored by observing degree and location of paralysis of the tail and limbs, the average score for each group of 8 mice is shown.

Compound | paw swelling (arthritis score) ([1]; 60 mg/kg oral) | paw swelling (arthritis score) ([1]; 6 and 20 mg/kg oral) | MOG-induced EAE symptom score compared to control mice ([2]; 20 mg/kg oral gavage daily from day 9) | MOG-induced EAE symptom score ([2]; 60 mg/kg oral gavage daily from day 9)
CN(C)CCCOc1ccc(-c2nc3ccc(OCCCN(C)C)cc3o2)cc1 [Compound 2] | not clear | Suppression of paw swelling |  | 
c1cc(-c2nc3ccc(OCCCN4CCCC4)cc3o2)ccc1OCCCN1CCCC1 [Compound 23] |  |  | suppressed significantly | suppressed further
